Data: ChEMBL document CHEMBL1201862, “PubChem BioAssay data set” (2004)
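Five compound concentrations were applied to cells in 96-well plates for 48 hours; endpoints were derived by simple linear interpolation of the resulting dose-response curve. GI50 marks 50% less growth.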 Activity calls are given as the source filed them. No stated cut-off is given here; in the data, active = GI50 up to about 1.1 µM and inactive = higher.

Tests used:
Assay in all cases: NCI tumour cell line growth inhibition, 48 h
[1] = system: A549
[2] = system: BT-549
[3] = system: DU-145
[4] = system: HCT-116
[5] = system: HT-29
[6] = system: M14
[7] = system: MCF7
[8] = system: MDA-MB-435
[9] = system: MDA-N
[10] = system: NCI-H460
[11] = system: NCI/ADR-RES
[12] = system: OVCAR-5
[13] = system: RPMI-8226
[14] = system: SF-539
[15] = system: SK-MEL-5
[16] = system: SK-OV-3
[17] = system: SN12C
[18] = system: SNB-75
[19] = system: SW-620
[20] = system: U-251

Row | Compound | GI50 [1] | GI50 [2] | GI50 [3] | GI50 [4] | GI50 [5] | GI50 [6] | GI50 [7] | GI50 [8] | GI50 [9] | GI50 [10] | GI50 [11] | GI50 [12] | GI50 [13] | GI50 [14] | GI50 [15] | GI50 [16] | GI50 [17] | GI50 [18] | GI50 [19] | GI50 [20]
1 | NS(=O)(=O)OCCCCCCCOS(N)(=O)=O | 109 µM (inactive) | 151 µM (inactive) | 124 µM (inactive) | 309 µM (inactive) | 504 µM (inactive) | 187 µM (inactive) | 101 µM (inactive) | 410 µM (inactive) | 392 µM (inactive) | 23 µM (inactive) | 273 µM (inactive) | 408 µM (inactive) | 296 µM (inactive) | 138 µM (inactive) | 319 µM (inactive) | 471 µM (inactive) | 133 µM (inactive) | 94.8 µM (inactive) | 334 µM (inactive) | 198 µM (inactive)
2 | C=C1CC2(CCOc3ccc(Cl)cc32)OC1=O (stereo not given) | 13.5 µM (inactive) | 0.352 µM (active) | 12.7 µM (inactive) | 1.63 µM (inactive) | 5.86 µM (inactive) | 2.54 µM (inactive) | 0.598 µM (active) | 2.82 µM (inactive) | 3.53 µM (inactive) | 3.61 µM (inactive) | 6.47 µM (inactive) | 10.6 µM (inactive) | 0.667 µM (active) | 0.284 µM (active) | 5.02 µM (inactive) | 13.1 µM (inactive) | 7.69 µM (inactive) | 3.61 µM (inactive) | 1.26 µM (inactive) | 8.63 µM (inactive)
3 | Cc1nc2ccccc2n1Cc1ccc(NC(=S)NC2CCCCC2)cc1 | 17.4 µM (inactive) | 15.4 µM (inactive) | 36.8 µM (inactive) | 34.9 µM (inactive) | 30.3 µM (inactive) | 30.1 µM (inactive) | 4.86 µM (inactive) | 6.84 µM (inactive) | 5.79 µM (inactive) | 35.5 µM (inactive) | 35.6 µM (inactive) | > 100 µM (inactive) | 13.4 µM (inactive) | > 72.3 µM (inactive) | 4.14 µM (inactive) | > 92.7 µM (inactive) | 7.03 µM (inactive) | 24 µM (inactive) | 41.3 µM (inactive) | 32.6 µM (inactive)
4 | Cn1c(=O)c2sc3cc4c(cc3c2c2ccccc21)sc1c(=O)n(C)c2ccccc2c14 | 89.3 µM (inactive) | 19.8 µM (inactive) | > 100 µM (inactive) | 67.5 µM (inactive) | > 100 µM (inactive) | 88.1 µM (inactive) | > 100 µM (inactive) | > 100 µM (inactive) | > 100 µM (inactive) | 52.4 µM (inactive) | > 100 µM (inactive) | 57.3 µM (inactive) | > 100 µM (inactive) | 76 µM (inactive) | > 100 µM (inactive) | > 100 µM (inactive) | > 100 µM (inactive) | 12.9 µM (inactive) | > 100 µM (inactive) | 19 µM (inactive)
5 | C[C@H](NC(=O)c1ccc(CNC(=O)/C=C/c2cccc(Oc3ccccc3)c2)cc1)c1ccccc1 | 55.8 µM (inactive) | > 100 µM (inactive) | > 100 µM (inactive) | > 100 µM (inactive) | > 100 µM (inactive) | > 100 µM (inactive) | > 100 µM (inactive) | > 100 µM (inactive) | > 100 µM (inactive) | > 100 µM (inactive) | > 100 µM (inactive) | > 100 µM (inactive) | > 100 µM (inactive) | 27 µM (inactive) | 58.5 µM (inactive) | > 100 µM (inactive) | > 100 µM (inactive) | 15.2 µM (inactive) | > 100 µM (inactive) | 49.2 µM (inactive)
6 | O=C1C=CC=C/C1=C1\N=C(c2ccccc2OCC(=O)c2ccc(Br)cc2)SS1 | > 100 µM (inactive) | 13.3 µM (inactive) | > 100 µM (inactive) | 78.9 µM (inactive) | > 100 µM (inactive) | 73.3 µM (inactive) | > 100 µM (inactive) | > 100 µM (inactive) | > 100 µM (inactive) | > 100 µM (inactive) | > 100 µM (inactive) | > 100 µM (inactive) | > 100 µM (inactive) | 24.4 µM (inactive) | > 100 µM (inactive) | 34.3 µM (inactive) | > 100 µM (inactive) | 8.93 µM (inactive) | > 100 µM (inactive) | 40.3 µM (inactive)
7 | CCCCCCCCCCCCCCNC(=O)CCC(NC(=O)c1ccc(N(C)Cc2cnc3nc(N)nc(N)c3n2)cc1)C(=O)NCCCCCCCCCCCCCC (stereo not given) | 5.45 µM (inactive) | 12.3 µM (inactive) | 13.9 µM (inactive) | 0.698 µM (active) | 4.13 µM (inactive) | 0.441 µM (active) | 4.48 µM (inactive) | 0.207 µM (active) | 0.244 µM (active) | 0.363 µM (active) | 39.8 µM (inactive) | 19.2 µM (inactive) | 3.07 µM (inactive) | 0.908 µM (active) | 1.77 µM (inactive) | 10.4 µM (inactive) | 9.68 µM (inactive) | 14.3 µM (inactive) | 0.288 µM (active) | 2.24 µM (inactive)
8 | Cc1c(CCCl)c(=O)n2c([nH]c3ccccc32)c1C#N | 1.78 µM (inactive) | 1.91 µM (inactive) | 2.21 µM (inactive) | 0.614 µM (active) | 1.6 µM (inactive) | 1.6 µM (inactive) | 1.61 µM (inactive) | 1.83 µM (inactive) | 1.61 µM (inactive) | 1.72 µM (inactive) | 1.27 µM (inactive) | 2.33 µM (inactive) | 1.3 µM (inactive) | 1.48 µM (inactive) | 1.42 µM (inactive) | 2.1 µM (inactive) | 1.36 µM (inactive) | 1.45 µM (inactive) | 0.973 µM (active) | 1.79 µM (inactive)
